The text below walks through data of PubChem BioAssay AID1845202 (Molecular Pharmacology Branch, DTP, NCI, 2023).

What is called viability, T/C is the result in the treated group divided by that in the control group, in per cent. The IC50 is the midpoint of a concentration-inhibition curve.

Each structure is given as a SMILES string. “And” between values parts separate entries of the source, which are not always exact repeats. Equal values may be shown once. Bounds are passed on as bounds.

This experiment concerns DMS 114 tumor spheroids, viability % test/control. Nature of the experiment: Anticancer human tumor DMS 114 cell line growth inhibition.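 As to all read-outs here: spheroids exposed to compounds for 7 days before read-out.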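 As to viability, T/C: luminescence used as a proxy for viable cells; 100% = DMSO vehicle control viability.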 Particulars: spheroids with HUVEC and MSC; for viability, T/C: stronger effect = lower value. The method in brief: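 Single agents and combinations were tested on spheroids built from tumor cells plus HUVEC and hMSC, at half-log dilutions starting at or near clinical Cmax, else 10 microM; final DMSO 0.25% (v/v).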

`[2H]c1nc(C)nc([2H])c1-c1cc(NC[C@@H](C)c2cccc3c(C(=O)NC)ccnc23)ncn1`: the viability, T/C runs as follows: (compound 0.0316 µM) 103% and 104% (2×); (compound 0.1 µM) 109% and 103% and 111%; (compound 0.316 µM) 105% and 99.8% and 113%; (compound 1 µM) 105% and 103% and 96.1%; (compound 3.16 µM) 101% and 98% and 103%; (compound 10 µM) 96.1% and 93.5% and 87.6%. Also, the IC50 (curve of compound) was > 10 µM.
